{"source": "patent US9504676B2", "about": "“Molecules inhibiting a metabolic pathway involving the Syk protein tyrosine kinase and method for identifying said molecules” (CENTRE NATIONAL DE LA RECHERCHE SCIENTIFIQUE, priority 2008, dated 2016)", "key": {"BALB/c mice": {"system": "BALB/c mice", "assay": "Antibody production after immunisation with TNP-KLH", "format": "in vivo", "conditions": "oral administration of 150 mg/kg, day 12"}, "[1]": {"system": "Syk mutants (Arg 68, Glu 121, Glu 155)", "assay": "Binding of G4G11 with Syk mutants in the ADA method", "parameters": "species or system murine", "conditions": "5 μM of C-13", "text": "On the basis of this information and the known 3D structure of the peptide complex formed by the SH2 domains of Syk and ITAM motifs^17, the inventors used computing approaches to locate a putative binding site for C-13. A candidate cavity comprising the residues Ser 9, Gln 43, Phe 51, Ile 66, Glu 67, Arg 68, Glu 69, Leu 70, Asn 71, Gly 72, Thr 73, Tyr 74, Ala 75, Glu 121 and Glu 155 of human Syk protein (see FIG. 8A, SEQ ID No. 1) and situated in the vicinity of the G4G11 epitope was identified (FIG. 1C). A structural analysis specified that the residues Ser 9, Gln 43, Phe 51, Arg 68, Glu 121 and Glu 155 could be involved in the binding of the ligand, and could be mutated without impairing the 3D structure of the protein. To validate the cavity in more detail, these six amino acids were mutated individually and the Syk mutants were subjected to the ADA test.\n• 1) Chemical products and antibodies. […] The binding of G4G11 with Syk was assessed by adding the 9E10 monoclonal antibody conjugated with HRP detecting the amino acid sequence EQKLISEEDLN of human c-myc protein located at the C-terminal end of the scFv fragment. To generate Syk mutants, targeted mutagenesis was used on GST:Syk 6-242 protein and the binding of G4G11 with the mutants was assessed in the presence of 5 μM of C-13. • 3) Cells, culture conditions and functional tests. […]"}}}
{"smiles": "COC(=O)c1ccccc1-c1ccc(/C=C2/SC(=S)N(Cc3ccccc3)C2=O)o1", "note": "[Molecule C-13, methyl 2-{5-[(3-benzyl-4-oxo-2-thioxo-1,3-thiazolidin-5-ylidene)methyl]-2-furyl}benzoate]", "values": [{"measurement": "antibody responses of mice immunised with a thymus-dependent antigen", "setting": "BALB/c mice", "value": "not affected"}, {"measurement": "effect of mutation of Arg 68, Glu 121 and Glu 155 of Syk on inhibition of G4G11 binding", "setting": "[1]", "value": "cancelled the inhibition"}]}
